Reference: patent US8148427B2, “Benzylamine derivative or pharmaceutically acceptable acid addition salt thereof, and use thereof for medical purposes” (Toray Industries, Inc., priority 2007, dated 2012)
Read-outs that look alike come from different tables or passages of the source. Marks after values point to notes of the source that are not given here.

Tests used:
female Spague-Dawley rat [1] = experiment: Number of voiding episodes in rat natural voiding behavior test; format: in vivo; settings: 1 hour after administration
Method: This method was carried out according to the literature [Jpn. J. Pharmacol., 87, 27 (2001)]. Each female Spague-Dawley rat was placed in a urine collection cage, and an electronic balance was placed under the cage. Excreted urine was allowed to fall into a urine collection tray placed on the electronic balance, and its change in weight every 10 seconds was scaled with time through a personal computer. Not less than 0.1 g of the change in weight was regarded as indicative of urination, and the weight of 1 g was regarded as corresponding to 1 mL of urine. Drug administration was carried out subcutaneously, and the number of voiding episodes was measured for 1 hour before and after the drug administration, to observe its change (number of cases: 11 to 18/group).
Significant difference test was carried out by student's-test or williams test, wherein a significance level of less than 5% was accepted as significant (* in the table).

female Spague-Dawley rat [2] = experiment: as above; format: in vivo; settings: 3 hours after the administration
female Spague-Dawley rat [3] = experiment: Effect on cardiovascular system in anesthetized rats; format: in vivo; settings: cumulative, 30 minutes, relative to before administration
Method: (§1) This method was carried out in accordance with the literature [Experimental Methods in Pharmacology, 5th Revised Edition, p. 168, KYODO ISHO SHUPPAN CO., LTD.]
Each female Spague-Dawley rat was anesthetized with urethane, and a polyethylene cannula was inserted into the left common carotid artery and fixed therein, to measure the mean blood pressure and the heart rate. […] Data were represented as amounts of the changes (blood pressure: mmHg, heart rate: %) relative to values before the administration (number of cases: 3 to 8/group).

female Spague-Dawley rat [4] = experiment: Effect on cardiovascular system in conscious rats; format: in vivo; settings: 30 minutes, relative to before administration
Method: as §1
Each female Spague-Dawley rat was anesthetized with ether, and a polyethylene cannula was inserted into the left common carotid artery and fixed therein, followed by subcutaneously indwelling a cannula for drug administration. After recovery from anesthesia, the mean blood pressure and the heart rate were measured under free moving conditions.

[5] = system: isolated bladder smooth muscle; experiment: Relaxing activity against isolated bladder smooth muscle in human; settings: relaxation by 10 μM forskolin = 100%
Method: This method was carried out in accordance with the literature [J. Urology, 165, 240 (2001)].
A normal part (non-cancerous part) of the bladder removed from a human male (32-72 years old) by bladder cancer surgery was used. A bladder section sizing about 3×10 mm was prepared in the nutrient solution (Krebs solution [NaCl 118 mM; KCl 4.7 mM; NaH2PO4 1.2 mM; glucose 10 mM; NaHCO3 25 mM; MgCl2.7H2O 1.2 mM; CaCl2.2H2O 2.5 mM]) sufficiently oxygenated with 95% O2+5% CO2. The sample was suspended in a Magnus tube filled with the nutrient solution (Krebs solution) aerated with 95% O2+5% CO2 at 37° C., and stabilized under a load of 0.5 g for 60 minutes or longer. The resting tension of the bladder sample was recorded in a pen recorder through a tension transducer. The test compound was cumulatively applied about every 10 minutes. The test compound was dissolved in distilled water or aqueous 10% DMSO solution (number of cases: 3 to 4/group).

[6] = target: T1, human adrenergic β2 receptor (Homo sapiens, UniProt P07550); experiment: Agonistic activity (cAMP production) against human adrenergic β2 receptor in CHO-K1 cells; format: cell-based
T1 construct: expressed in transfected cells; host or cells: CHO-K1 cells
T1 sequence (P07550 whole entry): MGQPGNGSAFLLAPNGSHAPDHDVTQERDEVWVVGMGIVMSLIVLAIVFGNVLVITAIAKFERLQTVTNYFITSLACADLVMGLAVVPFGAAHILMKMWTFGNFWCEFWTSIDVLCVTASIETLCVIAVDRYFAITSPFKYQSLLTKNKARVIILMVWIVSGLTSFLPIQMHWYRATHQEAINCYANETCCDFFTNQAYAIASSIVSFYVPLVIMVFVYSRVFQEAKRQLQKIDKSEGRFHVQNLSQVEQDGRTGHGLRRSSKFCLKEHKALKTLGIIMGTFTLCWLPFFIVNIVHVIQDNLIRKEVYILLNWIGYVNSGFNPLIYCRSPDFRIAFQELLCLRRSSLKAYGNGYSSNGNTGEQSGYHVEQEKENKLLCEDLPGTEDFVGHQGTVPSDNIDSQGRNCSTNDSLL
Method: (§2) This method was carried out according to the literature [J. Pharmacol. Exp. Ther., 271, 1253 (1994)] or [Naunyn-Schmiedeberg's Arch. Pharmacol., 369, 151 (2004)], using the amount of the production of cAMP as an index. The agonistic activity against human adrenergic β3 receptor was evaluated using SK-N-MC cells in the presence of a selective adrenergic β1 receptor antagonist (CGP-20712A, 1 μM). Evaluation of the agonistic activities against human adrenergic β2 and β1 receptors was carried out using CHO-K1 cells forcibly-expressed each receptor. Their cells were cultured in a culture flask. In assay day, they were detached and collected with EDTA, followed by dispensing in a 384-well plate so as to attain 10,000 cells/well. The test compound of each concentration was added to each well and allowed to react in a CO2 incubator at 37° C. for 30 minutes, followed by quantification of the produced cAMP using cAMP detection kit (Perkinelmer). The logarithm of the 50% reaction concentration of each test compound was calculated taking the reaction by 100 or 300 nM Isoproterenol as 100%. The test drug was added up to 10 μM, and in cases where reaction of not less than 50% was not observed at this concentration, the result was represented as n.d. (not detected).

[7] = system: isolated bladder smooth muscle; experiment: Relaxing activity test against isolated bladder smooth muscle in rat; settings: resting tension of isolated rat bladder; relaxation by 10 μM forskolin = 100%
Method: This method was carried out in accordance with the literature [J. Pharmacol. Exp. Ther., 293, 939 (2000)]. Each bladder was isolated from a normal Spague-Dawley rat, and a bladder section of the size of about 2×10 mm was prepared in the nutrient solution (Krebs solution [NaCl 118 mM; KCl 4.7 mM; NaH2PO4 1.1 mM; glucose 10 mM; NaHCO3 25 mM; MgCl2.7H2O 1 mM; CaCl2.2H2O 2.5 mM]) sufficiently oxygenated with 95% O2+5% CO2. The sample was suspended in a Magnus tube filled with the nutrient solution (Krebs solution) aerated with 95% O2+5% CO2 at 37° C., and stabilized under a load of 0.5 g for 60 minutes or longer. The resting tension of the bladder sample was recorded in a pen recorder through a tension transducer. The test compound was cumulatively applied about every 10 minutes. […] The test compound was dissolved in distilled water or aqueous 10% dimethylsulfoxide solution.

[8] = target: T2, human adrenergic β3 receptor (Homo sapiens, UniProt P13945); experiment: Agonistic activity (cAMP production) against human adrenergic β3 receptor in SK-N-MC cells; format: cell-based
T2 construct: evaluated using SK-N-MC cells in the presence of a selective adrenergic β1 receptor antagonist; endogenous in cells; host or cells: SK-N-MC cells
T2 sequence (P13945 whole entry): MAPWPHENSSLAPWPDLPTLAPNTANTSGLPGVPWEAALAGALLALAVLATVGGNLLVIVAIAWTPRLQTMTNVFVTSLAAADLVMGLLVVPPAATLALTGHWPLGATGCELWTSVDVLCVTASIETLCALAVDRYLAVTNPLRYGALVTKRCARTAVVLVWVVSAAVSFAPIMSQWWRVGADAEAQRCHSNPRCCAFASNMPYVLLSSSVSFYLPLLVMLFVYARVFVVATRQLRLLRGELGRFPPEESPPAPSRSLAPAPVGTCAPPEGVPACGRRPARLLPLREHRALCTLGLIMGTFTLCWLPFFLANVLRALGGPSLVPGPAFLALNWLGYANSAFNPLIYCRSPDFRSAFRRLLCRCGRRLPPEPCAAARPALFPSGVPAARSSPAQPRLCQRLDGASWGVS
Method: as §2

[9] = SK-N-MC cells, cAMP, with CGP-20712A 1 μM, 100 or 300 nM Isoproterenol = 100%, tested up to 10 μM, read-out: β3 (logarithm of the 50% reaction concentration) (converted)

EC50 [5] | EC50 [7] | EC50 [8, 9] | Structure (SMILES) | Number of Voiding Episodes (female Spague-Dawley rat [1]; 3 mg/kg subcutaneously) | Change in Blood Pressure (female Spague-Dawley rat [3]; 3 mg/kg subcutaneously) | EC50 [8] | other results
 |  |  | Nc1nc(CC(=O)Nc2ccc(CCNC[C@H](O)c3ccccc3)cc2)cs1 [Compound 11, reference compound] | 0.67 ± 0.19 | −17.1 ± 3.5 mmHg |  | Number of Voiding Episodes (female Spague-Dawley rat [1]; 3 mg/kg subcutaneously, listed as compound 11): did not show a significant effect; effect of decreasing the frequency of voiding episodes (female Spague-Dawley rat [2]): significant effect; Change in Heart Rate (female Spague-Dawley rat [3]; 3 mg/kg subcutaneously, 3 mg/kg): 133.5 ± 8.2 %; Change in Blood Pressure (female Spague-Dawley rat [4]; 3 mg/kg subcutaneously): −22.5 ± 5.6 mmHg
562 nM | 229 nM | 39.8 nM | COc1cc(CN[C@@H](C)[C@H](O)c2ccc(O)c(NS(C)(=O)=O)c2)cc(OC)c1 [Example 1, N-(5-((1R,2S)-2-(3,5-Dimethoxybenzylamino)-1-hydroxypropyl)-2-hydroxyphenyl)methane-sulfonamide] |  | −25.0 ± 3.6 mmHg |  | Number of Voiding Episodes (female Spague-Dawley rat [1]; 0.1 mg/kg subcutaneously): 1.06 ± 0.17; Number of Voiding Episodes (female Spague-Dawley rat [1]; 0.3 mg/kg subcutaneously): 0.83 ± 0.12*; Number of Voiding Episodes (female Spague-Dawley rat [1]; 1 mg/kg subcutaneously): 0.94 ± 0.17*; EC50 ([6]; CHO-K1 cells, cAMP, 100 or 300 nM Isoproterenol = 100%, tested up to 10 μM, n.d. = not detected at 10 μM, read-out: β2 (logarithm of the 50% reaction concentration) (converted)): 2340 nM; Change in Blood Pressure (female Spague-Dawley rat [3]; 0.3 mg/kg subcutaneously): −25.2 ± 4.7 mmHg; Change in Heart Rate (female Spague-Dawley rat [3]; 0.3 mg/kg subcutaneously): 121.7 ± 4.2%; Change in Blood Pressure (female Spague-Dawley rat [3]; 1 mg/kg subcutaneously): −25.4 ± 2.3 mmHg; Change in Heart Rate (female Spague-Dawley rat [3]; 1 mg/kg subcutaneously): 126.4 ± 5.1%; Change in Heart Rate (female Spague-Dawley rat [3]; 3 mg/kg subcutaneously): 135.2 ± 8.4%; Change in Blood Pressure (female Spague-Dawley rat [4]; 0.3 mg/kg subcutaneously): −6.5 ± 5.5 mmHg; Change in Heart Rate (female Spague-Dawley rat [4]; 0.3 mg/kg subcutaneously): 107.7 ± 3.5%
 | 36.3 nM | 31.6 nM | C[C@H](NCc1cc(C(F)(F)F)cc(C(F)(F)F)c1)[C@H](O)c1ccc(O)c(NS(C)(=O)=O)c1 [Example 2, N-(5-((1R,2S)-2-(3,5-Bis(trifluoromethyl)benzylamino)-1-hydroxypropyl)-2-hydroxyphenyl)methanesulfonamide] | 0.45 ± 0.21* |  |  | 
708 nM | 74.1 nM | 33.1 nM | COc1cc(CN[C@@H](C)[C@H](O)c2ccc(O)c(NS(C)(=O)=O)c2)cc(OC)c1OC [Example 4, N-(2-Hydroxy-5-((1R,2S)-1-hydroxy-2-(3,4,5-trimethoxybenzylamino)propyl)phenyl)methane-sulfonamide] | 0.33 ± 0.19* |  |  | 

Structure (SMILES) | EC50 [5] | EC50 [7] | EC50 [8, 9] | Number of Voiding Episodes (female Spague-Dawley rat [1]; 3 mg/kg subcutaneously) | Change in Blood Pressure (female Spague-Dawley rat [3]; 3 mg/kg subcutaneously) | EC50 [8] | other results
C[C@H](NCc1cc(Cl)cc(Cl)c1)[C@H](O)c1ccc(O)c(NS(C)(=O)=O)c1 [Example 3, N-(5-((1R,2S)-2-(3,5-Dichlorobenzylamino)-1-hydroxypropyl)-2-hydroxyphenyl)methane-sulfonamide] |  | 89.1 nM |  | 0.50 ± 0.15* |  | 21.9 nM | EC50 [6]: 1070 nM
Cc1cc(C)cc(CN[C@@H](C)[C@H](O)c2ccc(O)c(NS(C)(=O)=O)c2)c1 [Example 5, N-(5-((1R,2S)-2-(3,5-Dimethylbenzylamino)-1-hydroxypropyl)-2-hydroxyphenyl)methane-sulfonamide] | 575 nM | 151 nM |  | 0.50 ± 0.15* |  | 72.4 nM | 
